Converted amounts (≈) assume the structure as drawn. Read-outs that look alike come from different tables or passages of the source.
What was measured:
[1] = tested on: human keratinocytes (HaCaT cells); assay: Proliferation of human keratinocytes, 3H methyl-thymidine incorporation; assay type: cell-based; conditions: for inhibition at 10 µg/mL: Homo sapiens, HaCaT, read-out: Inhibition (proliferation of HaCaT cells)
Method: The effects of the extracts according to the invention and various ingredients on the proliferation of human keratinocytes were obtained by using the HaCaT cell-line. The cells (10,000–15,000) were disseminated in 200 μl DMEM with 5% foetal calf serum in 96-well F-form micro-titre dishes and incubated at 37° C. at absence of test substances in an incubator. Cell proliferation was determined by measuring the incorporation of ^3H methyl-thymidine (0.5 μCi/well) over the last 6 hours in the culture.

[2] = tested on: myelo-peroxidase (MPO), neutrophile granulocyte accumulation; assay: Oleum Crotonis-ear-oedema model, myelo-peroxidase in ear homogenates; assay type: in vivo; conditions: 250 μg topically on the ear, mice, 6 hours
Method: (§1) The anti-phlogistic effects of hypericum extract according to the invention, also those of isolated ingredients, were tested in the Oleum Crotonis-ear-oedema model on male NRMI mice. After inducing a narcosis by the intra-peritonal injection of 60 mg/kg sodium-pento-barbital, the test substances were applied to the right ear in 10 μl acetone, whereas the left ear was treated with 10 μl acetone alone, as a control. 30 mins later, a local inflammation was triggered at the left ear by applying 50 μg Oleum Crotonis in 10 μl acetone. After 6 hours, the animals were sacrificed and inhibition of the inflammation reaction was quantified by weighing a sample of tissue drawn from both ears, using the following formula: [1−(GT/GL]×100; in the case of GT or GL, this deals with the difference in weight between the right and left ears of animals that have been treated with the test substance (GT), or only with the solvent (GL).
Inhibition of neutrophile granulocyte accumulations in inflamed tissue was obtained by determining myelo-peroxidase (MPO) in the ear homogenates. To this end, biopsy samples were recorded in 1 ml hexadecyl-trimethyl ammonium bromide (HTAB) buffers, homogenised with a glass homogeniser at 4° C. and then given ultrasound treatment for 10 seconds in a sonicator. After centrifuging at 4° C. with 3000 g for 10 mins, the supernatant was removed and retained for analysing at −70° C. Determining the MPO was performed in micro-titre dishes after adding H2O2 and the O-dianisidine-dihydrochloride indicator as a kinetic measure, over a period of 5 mins at 450 nm. Assessment was carried out against a standard curve with horseradish peroxidase, and was obtained as an mU enzyme activity per mg of tissue.
(§2) The results of the investigations after applying 250 μg of the test substance or 1000 μg of the extract according to the invention to the left ear in each case are summarised in the following table.

5α reductase = biological target: T1, 5α reductase (Homo sapiens, UniProt P18405); assay: Inhibition of 5α reductase in DU145 cells; assay type: cell-based
T1 construct: carried out on cells of the human prostate-cancer cell-line DU145; endogenous in cells; host or cells: DU145 (human prostate cancer cell line)
T1 sequence (P18405 1-259): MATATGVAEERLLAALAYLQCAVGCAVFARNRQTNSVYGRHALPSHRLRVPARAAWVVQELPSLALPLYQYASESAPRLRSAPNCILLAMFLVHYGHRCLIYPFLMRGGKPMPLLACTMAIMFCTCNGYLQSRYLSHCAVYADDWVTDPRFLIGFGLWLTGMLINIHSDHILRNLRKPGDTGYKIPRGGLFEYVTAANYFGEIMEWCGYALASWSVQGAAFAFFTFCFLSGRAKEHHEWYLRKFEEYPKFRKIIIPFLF

[3] = tested on: Oleum Crotonis-ear-oedema; assay: Oleum Crotonis-ear-oedema model, ear weight; assay type: in vivo; conditions: 250 μg topically on the ear, mice, 6 hours
Method: as §1, §2

Methicillin-resistant SA = assay type: cell-based, Staphylococcus aureus
Method: (§3) Anti-microbial effects against various gram-positive bacteria were determined using the micro-dilution method. In the table below, we show the minimum inhibition concentration (MIC) and the minimum bactericide concentration (MBC) in each case.

DU145 cells = conditions: some 30 μg/ml
Method: Investigations of 5a reductase inhibition were carried out on cells of the human prostate-cancer cell-line DU145. The cells (250,000) were disseminated in 5 ml of RPMI 1640 medium with 10% foetal calf serum (FCS) in 6-well cell-culture dishes and incubated at 37° C. in an incubator. After four days, the medium against RPMI 1640 was replaced, with the addition of 10% charcoal-stripped FCS. On the following day, the test substances and ^14C testosterone were applied and another 18 hours later, supernatant of the cells were removed. The supernatant of the cells were mixed with 2.5 ml ethyl acetate and then centrifuged for 10 mins with 500 g at room temperature. The organic phase was removed and transferred over to a small glass tube. Extraction was then repeated by again applying 2.5 ml ethyl acetate. The combined organic phases were evaporated down at 37° C. under N2 fumigation until dry; the residue was taken into 50 μl ethyl acetate and then separated out twice on a silica-gel 60 TLC dish, with ethyl acetate/cyclohexane (1:1) as mobile phase. The testosterone metabolites so formed were localised with the aid of a linear analyser, and inhibition of 5α reductase was obtained at the dihydro-testosterone peak by comparison with the solvent control.

[4] = tested on: Staphylococcus aureus (SA); assay: MIC, micro-dilution method; assay type: cell-based
Method: as §3

Listeria monocytogenes = assay: MIC, micro-dilution method; assay type: cell-based
Method: as §3

[5] = tested on: Staphylococcus saprophyticus; assay: MIC, micro-dilution method; assay type: cell-based
Method: as §3

Streptococcus pyogenes = assay: MIC, micro-dilution method; assay type: cell-based
Method: as §3

Enterococcus fæcalis = assay: MIC, micro-dilution method; assay type: cell-based
Method: as §3

Enterococcus fæcium = assay: MIC, micro-dilution method; assay type: cell-based
Method: as §3

Enterococcus durans = assay: MIC, micro-dilution method; assay type: cell-based
Method: as §3

[6] = tested on: Herpes simplex 1 strain of virus (HSV-1); assay: HSV-1 "inhibition test" (virostatic action in verocells); assay type: cell-based; conditions: Human alphaherpesvirus 1; HSV-1 3000 TCID50/ml, 48–72 hours
verocells = assay: Cyto-toxicity on verocells, MTT test; assay type: cell-based, ape; conditions: 7 days
Method: Various concentrations of the extract according to the invention and hypericin were incubated in the incubator for 7 days to assess the cyto-toxic effect of verocells. Determining of cyto-toxicity was performed using an MTT test following a published procedure (Cinatl J. jr; Cinatl, J; Rabenau, H, Gümel, H; Doerr, H. W; (1993); “In-vitro anti-human immuno-deficiency virus activity of 2′, 3 dideoxynucleotides and their effect on clonal growth of hæmopoietic cells from human bone-marrow”, Arzneimittel-Frsch./Drug Res. 43, 622–625).
Assessment of the cyto-toxic concentration (TC50) and the virus-inhibiting concentration (IC50) was performed using linear regression. To calculate the therapeutic index, the formula TC50/IC50 was applied.

[7] = tested on: Herpes simplex 1 strain of virus (HSV-1); assay: HSV-1 "deactivation test" (virus titre on verocells); assay type: cell-based; conditions: for virus titre: virus applied 1.5×10^7 TCID50
[8] = DU-145, 30 μg/ml, DU145 cells, 18 hours, read-out: Inhibition of 5α reductase
[9] = DU-145, read-out: Inhibition of 5α reductase

Row | Molecule | inhibition at 10 µg/mL ([1]; 10 μg/ml) | MPO inhibition [2] | inhibition at 30 µg/mL (5α reductase; [8]) | Oedema inhibition [3] | other results
1 | O=c1cc(-c2ccc(O)c(-c3c(O)cc(O)c4c(=O)cc(-c5ccc(O)cc5)oc34)c2)oc2cc(O)cc(O)c12 [Amento-flavone] | 68% | 70% | -15% | 82% | 
2 | Oc1ccccc1O [Catechol] |  | 41% | -15% | 36% | inhibition at 10 µg/mL [1]: 14%
3 | O=C(/C=C/c1ccc(O)c(O)c1)O[C@@H]1C[C@](O)(C(=O)O)C[C@@H](O)[C@H]1O [Chlorogenic acid] | -9% | 16% | 3% | 14% | 
4 | Oc1cc(O)c2c(c1)O[C@H](c1ccc(O)c(O)c1)[C@H](O)C2 [Epicatechol] | 13% | 45% | -6% | 1% | 
5 | CC(C)=CCC[C@]1(C)[C@@H](CC=C(C)C)C[C@@]2(CC=C(C)C)C(=O)[C@]1(C(=O)C(C)C)C(=O)C(CC=C(C)C)=C2O [Hyperforin] |  | 62% |  | 65% | MIC (Methicillin-resistant SA): 31.25 µg/mL (≈ 58.2 µM); cyto-toxicity (DU145 cells): cyto-toxic; MIC [4]: 62.5 µg/mL (≈ 116 µM); MIC (Listeria monocytogenes): 15.6 to 31.25 µg/mL; MIC [5]: 62.5 to 125 µg/mL; MIC (Streptococcus pyogenes): 15.6 µg/mL (≈ 29.1 µM); MIC (Enterococcus fæcalis): 125 µg/mL (≈ 233 µM); MIC (Enterococcus fæcium): 125 to 250 µg/mL; MIC (Enterococcus durans): 125 µg/mL (≈ 233 µM)
6 | Cc1cc(O)c2c(=O)c3c(O)cc(O)c4c5c(O)cc(O)c6c(=O)c7c(O)cc(C)c8c1c2c(c34)c(c78)c65 [Hypericin] | 100% | 48% |  | 6% | IC50 [6]: 2.2 µg/mL (≈ 4.36 µM); inhibition at 30 µg/mL (5α reductase; [9]): -24%; TC50 (verocells): 74.3 µg/mL (≈ 147 µM); virus titre ([7]; 10 μg/ml): 4.7 × 10^6 TCID50; virus-deactivating action ([7]; 100 μg/ml): approx. 4 log10 stages; virus titre ([7]; 100 μg/ml): 4.7 × 10^3 TCID50
7 | O=c1c(O[C@@H]2O[C@H](CO)[C@H](O)[C@H](O)[C@H]2O)c(-c2ccc(O)c(O)c2)oc2cc(O)cc(O)c12 [Hyperoside] | -8% | 39% | -1% | −27% | 
8 | O=c1c(O[C@@H]2O[C@H](CO)[C@@H](O)[C@H](O)[C@H]2O)c(-c2ccc(O)c(O)c2)oc2cc(O)cc(O)c12 [Isoquercitrin] | 83% | 73% | -5% | −29% | 
9 | O=c1cc(-c2ccc(O)c(O)c2)oc2cc(O)cc(O)c12 [Luteolin] | 92% | 91% | 42% | 70% | 
10 | O=c1c(O)c(-c2cc(O)c(O)c(O)c2)oc2cc(O)cc(O)c12 [Myricetin] | 26% | 75% | 29% | 17% | 
11 | O=c1c(O)c(-c2ccc(O)c(O)c2)oc2cc(O)cc(O)c12 [Quercetin] | -29% | 97% | 46% | 82% | 
12 | C[C@@H]1O[C@@H](Oc2c(-c3ccc(O)c(O)c3)oc3cc(O)cc(O)c3c2=O)[C@H](O)[C@H](O)[C@H]1O [Quercitrin] |  | 23% |  | −26% | inhibition at 10 µg/mL [1]: 35%; inhibition at 30 µg/mL (5α reductase; [9]): -29%
13 | C[C@@H]1O[C@@H](OC[C@H]2O[C@@H](Oc3c(-c4ccc(O)c(O)c4)oc4cc(O)cc(O)c4c3=O)[C@H](O)[C@@H](O)[C@@H]2O)[C@H](O)[C@H](O)[C@H]1O [Rutin] | 9% | 55% | -6% | 38% | 
14 | Camphor oil |  | 96% |  | 91% | Inhibition (proliferation of HaCaT cells) ([1]; 10 μg/ml): 44%; Inhibition of 5α reductase (5α reductase; 30 μg/ml, DU145 cells, 18 hours): 12%
15 | Hyperforin Na |  |  |  |  | Inhibition (proliferation of HaCaT cells) ([1]; 10 μg/ml): 97%; Inhibition of 5α reductase (5α reductase; 5 μg/ml, DU145 cells, 18 hours): 10%

Source: patent US7166310B2, “Stable extract from Hypericum perforatum L., method for the production thereof and its use as a topical medicament” (Dr. Willmar Schwabe GmbH & Co., priority 2000, dated 2007)
